Broadly, the IC50 is the concentration that inhibits the measured activity by half. A higher IC50 goes with weaker potency in that assay. The term EC50 denotes the concentration at which the effect is half-maximal.

Each structure is given as a SMILES string. Where “and” joins values, the source holds several entries; their conditions need not be identical. Equal values may be shown once.

The source of these data is US8084459B2, “Substituted quinazolinones for treating neurological conditions” (Prana Biotechnology Ltd, priority 2004, dated 2011).

One data set addresses T1, Aβ 1-42 (Homo sapiens, UniProt P05067).
T1 construct: The reaction solutions contained Aβ 1-42 at concentrations
Briefly: Assay 1 Fluorometric H2O2 assay (peroxide). The class given is biochemical. The following applies: inhibition of H2O2 generation by Aβ with copper. The protocol: Assay 1. Fluorometric H2O2 Assay
A fluorometric assay was used to test the ability of a test compound to inhibit hydrogen peroxide generation by Aβ in the presence of copper based on dichlorofluoroscein diacetate (DCF; Molecular Probes, Eugene Oreg.). The DCF solution (5 mM) in 100% dimethyl sulphoxide (previously purged with argon for 1 hr at 20° C.) was deacetylated in the presence of 0.025M NaOH for 30 min and neutralised at pH 7.4 to a final concentration of 1 mM. Horseradish peroxidase (HRP) stock solution was prepared to 1 μM at pH 7.4. The reactions were carried out in PBS, pH 7.4 in a 96 well plate (total volume=250 μl/well). The reaction solutions contained Aβ 1-42 at concentrations in the range of 50 nM to 1 μM, copper-glycine chelate (Cu-Gly), was prepared by adding CuCl2 to glycine in the ratio of 1:6 and added to the Aβ in the proportion 2Cu-Gly:1Aβ), reducing agents including dopamine (5 μM) or ascorbic acid, deacetylated DCF 100 μM, and HRP, 0.1 μM. 1-10 μM EDTA or another chelator may also be present as a control for free copper, but was not required for the assay to function. The reaction mixture was incubated at 37 C for 60 min. Catalase (4000 units/ml) and H2O2 (1-2.5 μM) standards in PBS pH 7.4 may be included as positive controls. Fluorescence was recorded using a plate reader with excitation and emission filters at […] respectively. H2O2 concentration may be established by comparing fluorescence with the H2O2 standards. Inhibition of Aβ H2O2 production was assayed by including a given concentration of test compound(s) in the test wells.

For data set [1], the system named is soluble and insoluble Aβ in the brain. Kind of data set: Assay 11 effect on Aβ deposits in transgenic animals (soluble and insoluble Aβ, Western blot). The class given is in vivo, APP2576 transgenic mouse. The following applies: APP2576 mice. A general note: In western blotting, separated proteins are transferred to a membrane and probed.
A short description of data set [2]: Assay 16 mouse plasma levels of test compounds. In kind it is in vivo. Particulars: for Conc. in mouse plasma: listed as PB 1076, 30 mg/kg. The protocol: Assay 16. Determination of Mouse Plasma Levels of Test Compounds PB 1075
Oral administration of PB 1075 at 30 mg/kg, as a suspension in Na-Carboxymethyl Cellulose (CMC) was administered by oral gavage to four mice. Two mice were sacrificed 30 minutes after administration and two mice were sacrificed 60 minutes after administration. Blood was obtained by cardiac puncture and plasma separated by centrifugation.
The concentration of PB 1075 was determined by LC/MS using the triple quadrupole instrument. The mobile phase consisted of an acetonitrile (ACN)/water gradient (containing 0.05% Formic acid) and the column was a Phenomenex Lunea 5 um C8 (50×2 mm) column.
The supplied acute toxicity mouse plasma samples were directly injected following a protein precipitation with ACN. The analytical method in plasma was linear in the range of 10 to 10,000 ng/ml (R^2=0.994). Recovery of PB 1075 from plasma was ˜100%.
Oral administration of PB 1076 at 30 mg/kg, as a suspension in Na-Carboxymethyl Cellulose (CMC) was administered by oral gavage to four mice. Two mice were sacrificed 30 minutes after administration and two mice were sacrificed 60 minutes after administration. Blood was obtained by cardiac puncture and plasma separated by centrifugation.
The concentration of PB 1076 was determined by LC/MS using the triple quadrupole instrument. The mobile phase consisted of an acetonitrile (ACN)/water gradient (containing 0.05% Formic acid) and the column was a Phenomenex Luna 5 μM C8 (50×2 mm) column.
The mouse plasma samples were directly injected following a protein precipitation with ACN. The analytical method in plasma was linear in the range of 500 to 10,000 ng/ml (R^2=0.999). Recovery of PB 1076 from plasma was ˜85%.
Oral administration of PB 1077 at 30 mg/kg, as a suspension in Na-Carboxymethyl Cellulose (CMC) was administered by oral gavage to four mice. Two mice were sacrificed 30 minutes after administration and two mice were sacrificed 60 minutes after administration. Blood was obtained by cardiac puncture and plasma separated by centrifugation.
The concentration of PB 1077 was determined by LC/MS using the triple quadrupole instrument. The mobile phase consisted of an acetonitrile (ACN)/water gradient (containing 0.05% Formic acid) and the column was a Phenomenex Luna 5 μM C8 (50×2 mm) column.
The mouse plasma samples were directly injected following a protein precipitation with ACN. The analytical method in plasma was linear in the range of 5 to 5,000 ng/ml (R^2=0.999). Recovery of PB 1077 from plasma was ˜92%.

A further data set relates to Aβ plaques. Briefly: Assay 14 transgenic mouse brain immunohistochemistry (plaque score). In kind it is in vivo. Particulars: APP2576 mice. The source says: Assay 14. Transgenic Mouse Brain Immunohistochemistry
The APP2576 transgenic mouse (Hsiao et al., 1996) as referred to in Assay 11 is utilized in this assay. The contralateral formalin-fixed mouse brain tissue is coronally cut. Sections (10 μm) are taken from the corresponding sites and treated with 80% formic acid for antigen retrieval. The primary antibody used is monoclonal antibody 1E8, which recognizes epitopes between residues 18 and 22 of Aβ (SmithKline Beecham, UK). Immunoreactivity is developed with secondary antibody linked to horseradish peroxidase (using a 3,39-diaminobenzidinechromagen) (Dako) and alkaline phosphatase (using 5-bromo-4-chloro 3-indoxyl phosphate and nitroblue tetrazolium chloride chromagen) (Dako). Plaque abundance per section is assessed by two operators blinded to treatment according to the following scale:
1=plaques present but very sparse
2=several plaques present
3=numerous plaques visible in restricted areas
4=plaques abundant and not restricted to any particular area.
Intermediate values eg 2.5 are assigned where applicable. Students ‘t’ test is used for comparisons between groups.

Data set [3] addresses T2, A-beta 1-42 aggregates formed by precipitation with zinc (Homo sapiens, UniProt P05067).
T2 construct: host or cells: chemically synthesised peptide
Kind of data set: Assay 17 synthetic amyloid plaque disaggregation assay (thioflavin T). In kind it is biochemical. Particulars: for Assay 17 percentage disaggregation at 5 uM: 5 uM (printed as 5/%); for EC50: Aβ1-42/Zn/ThT aggregates, 2 hours, 37 degrees. The protocol:
Assay 17. Synthetic Amyloid Plaque Disaggregation Assay
This assay measures the ability of test compounds to dissolve aggregates of synthetic Alzheimer's A-beta 42 residue peptide formed by precipitation with zinc.
The synthetic plaque disaggregation assay is a thioflavin T fluorescence-based assay which measures the ability of a test compound to disaggregate synthetic aggregates generated by the incubation of Alzheimer's amyloid A-beta protein (Aβ) in the presence of zinc.
The 42 residue A-beta which is the form most prevalent in Alzheimer's amyloid plaques is precipitated by the addition of zinc salts to form a beta sheet conformational aggregate physicochemically congruent with the crystalline amyloid plaque cores. […] Solubilisation of the metal bound aggregates by a test compound will result in reduced fluorescence as the beta sheet conformation is lost. The activity of a compound in this assay is a combination of its metal chelating properties, solubility, hydrophobicity and structural elements which influence interaction with the amyloid mass.
The assay models the process by which a test compound is acting, either to compete for bound metals with Aβ or alternatively to displace metals by competitively binding at the metal binding site, resulting in Aβ precipitated by zinc, being solubilised, as an in vitro model of plaque disaggregation.
Aliquots of synthetic Aβ peptide are prepared for convenience. Aβ is dissolved in distilled H2O and peptide concentration is assessed by absorption at 214 nm against a validated standard curve. Abeta/Zn aggregates in the presence of solvent only (DMSO) and control vehicle (PBS) are included in each assay as negative controls. The test compounds were dissolved in DMSO to a concentration of 5 mM. Dilutions were made in DMSO as appropriate to 100 times the desired final concentration and added immediately to the A-beta aggregates.
A-beta 1-42 is incubated with ZnCl2 and Thioflavine T (ThT) in a molar ratio of (1:2:2) for 24 hours at 37 degrees on a rotating wheel in PBS pH 6.6. Following incubation, aggregates are incubated with test drug for a further 2 hours at 37 degrees with rotation. PBS blank, untreated aggregates and DMSO controls are included with each experiment. After 2 hour incubation, samples are measured for ThT fluorescence using an LS55 (Perkin Elmer) fluorimeter in a cuvette.
Data are generated in FL Winlab software (Perkin Elmer) and analysed using GraphPad Prism v4.0 software. Data are calculated as the average of multiple reads.
The two values together provide a measure of the efficiency of disaggregation.

Data set [4] can be described thus: Assay 3(d) test compound cytotoxicity (MTS). The following applies: BL6Jx129sv, mouse, primary cortical neuronal cultures, cortical neurons; for viability at 4 days, 1 µM: read-out: Assay 3(d) Cytotoxicity (% viable at 1 uM); for viability at 4 days, 10 µM: read-out: Assay 3(d) Cytotoxicity (% viable at 10 uM). The class given is cell-based. The protocol:
Primary Cortical Neuronal Cultures
Cortical cultures were prepared as previously described (White et al., 1998). Embryonic day 14 BL6Jx129sv mouse cortices were removed, dissected free of meninges and dissociated in 0.025% (wt/vol) trypsin. Dissociated cells were plated in 48 well culture plates at a density of 2×10^6 cells/mL in MEM with 25% (vol/vol) FCS and 5% (vol/vol) HS and incubated at 37° C., 2 hrs. Media was then replaced with Neurobasal media (Invitrogen Life Technologies) and B27 supplements (Invitrogen Life Technologies). Cultures were maintained at 37° C. in 5% CO2. Prior to experimentation, the culture medium was replaced with Neurobasal media and B27 minus antioxidants (Invitrogen Life Technologies).
(a) MTS Assay for Cell Viability
Cell viability is determined using the MTS assay. Culture medium is replaced with fresh neurobasal medium plus B27 supplements minus antioxidants. 1/10 volume MTS solution (Cell Titre 96 Aqueous One, Promega Corporation) and incubated at 37° C., 2 hrs. 200 microlitre aliquots are measured with a spectrophotometer at 560 nm.
(d) Assay for Test Compound Cytoxicity
Neuronal cortical cells were cultured for five days as per Assay 2 in NB media and B27 supplement.
On day six the test compounds were added to the neuronal cell cultures in NB media and B27 supplement minus antioxidants.
Test compounds were dissolved in 100% DMSO to a concentration of 2.5 mM (10 mM if excess compound was weighed out per vial—then diluted to 2.5 mM). 2.5 mM stock solution was serially diluted 1 in 10 to give working solutions of 250 uM, 25 uM, 2.5 uM. Test compounds were not added directly to cells, instead they were added to a 48 well ‘Drug Plate’ as comprised below:
Preparation of “Drug Plate”:
• Well 1: 576 ul NB+B27 (no antioxidant)*+24 ul 2.5 uM test compound • Well 2: 576 ul NB+B27 (no antioxidant)+24 ul 25 uM test compound • Well 3: 576 ul NB+B27 (no antioxidant)+24 ul 250 uM test compound • Well 4: 576 ul NB+B27 (no antioxidant)+24 ul 2.5 uM test compound • Well 5: 576 ul NB+B27 (no antioxidant)+24 ul 25 uM test compound • Well 6: 576 ul NB+B27 (no antioxidant)+24 ul 250 uM test compound • Well 7: 576 ul NB+B27 (no antioxidant)+24 ul test compound diluent** • Well 8: 600 ul NB+B27 (no antioxidant)
The Drug Plate was incubated at 37° C. for 15 mins. 200 ul of each well was added in triplicate to the corresponding cell plate. The cell plate was incubated at 37° C., for 4 days, (2 compounds are tested on each plate of cells).
* NB media and B27 (no antioxidants),
** PBT diluent 10% DMSO in NB+B27 (no antioxidants)
On completion of the assay, 1/10 volume MTS was added per well of plate (ie 25 ul/250 ul). The plates were incubated at 37° C. for 2 hrs, and then absorbance was read at 560 nm.

T2 sequence (P05067 672-713 limits assumed): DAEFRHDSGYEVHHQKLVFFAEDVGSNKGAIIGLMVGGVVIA
T1 sequence (P05067 672-713 limits assumed): as above

Consider `Br.O=c1c2c(Cl)cc(Cl)c(O)c2ncn1CC1CC1` [Compound 1076], for which, at Aβ 1-42, the IC50 worked out at 0.45 µM. Also, in data set [1] (insoluble Aβ), the “Tg mice Insoluble Fraction: % change compared with vehicle alone control mice” value was −21% (insol). For the same molecule, the “Tg mice Soluble Fraction: % change compared with vehicle alone control mice” value in data set [1] (soluble Aβ) is −24% (sol). In addition, the “Conc. in mouse plasma” value was 1593.61 ng/mL in data set [2] (30 min after oral dosing at 30 mg/kg, single mouse); 1167.52 ng/mL and 2697.62 ng/mL in data set [2] (60 min after oral dosing at 30 mg/kg, single mouse). In data set [2] (highest level found in mice (Up to), oral dosing 30 mg/kg described for PB 1075-1077), the “Assay 16 Mice plasma concentration” value is recorded as “Up to 2698 ng/mL”. For the same molecule, in data set [2] (mouse, plasma, po, 30 mg/kg, 30 min after oral dosing at 30 mg/kg, single mouse, read-out: Conc. in mouse plasma), the concentration at 30 min came to 2330 ng/mL. Also, the “Plaques score: average count score per treatment group relative to the vehicle (sham) treated group” value with Aβ plaques is recorded as −29% (plaque).
For the molecule `Br.O=c1c2c(Cl)cc(Cl)c(O)c2ncn1Nc1ccc(F)cc1F` [Compound 1100], inhibition on Aβ 1-42 was half-maximal at 0.42 µM (IC50). Moreover, in data set [3], the “Assay 17 percentage disaggregation at 5 uM” value is reported as 42% and the EC50 turned out to be 17 µM. For the same molecule, in data set [4], the viability at 4 days, 1 µM was determined as 100% and the viability at 4 days, 10 µM amounted to 92%.
The matching figures for `Br.O=c1c2c(Cl)cc(Cl)c(O)c2ncn1Cc1cccc(Cn2cnc3c(O)c(Cl)cc(Cl)c3c2=O)n1` [Compound 1101]: less than 4.1 µM, 45 5/%, 11.7 µM, 89% and 17%.
At Aβ 1-42, `CCN(CC)Cc1nc2c(O)c(Cl)cc(Cl)c2c(=O)[nH]1` [Compound 1128] returned an IC50 of 0.34 µM. Further, in data set [3], the “disaggregation (rating in words)” value was “very good (A test compound able to achieve an IC50 at less than 20 μM and scoring greater than 40% disaggregation at 5 μM is considered ‘very good’)”; the “Assay 17 percentage disaggregation at 5 uM” value is recorded as 41 5/%; the EC50 was determined as 13.2 µM.
Consider `O=c1c2c(Cl)ccc(O)c2ncn1CC1CC1` [Compound 1132], for which the “Assay 17 percentage disaggregation at 5 uM” value in data set [3] is 16 5/%.
